Results from US5401726A, “2'methylidenepyrimidine nucleoside compounds, their use and method for production thereof” (Yoshitomi Pharaceutical Industries, Ltd., priority 1988, dated 1995).
≈ marks a conversion by molar mass, not a printed value.

Legend:
[1] = solubility (general statement); assay type: physicochemical; settings: with respect to pharmaceutical production
[2] = solubility in saline at 25 mg/ml, room temperature; assay type: physicochemical
[3] = test system: PC13; human lung large cell carcinoma; test: MTT cytotoxicity, in vitro cell growth, PC13; assay type: cell-based; settings: PC-13, 72 hr, read-out: IC50 (concentration showing 50% cytotoxity)
Protocol: (§1) Effect of the compounds on in vitro cell growth of various tumor cell lines:
(§2) The assay of cytotoxicity is dependent on the cellular reduction of MTT [3'-(4,5-dimethylthiazol-2-yl)-2,5-diphenyltetrazolium bromide] by the mitochondrial dehydrogenase of viable cells to a blue formazan product which can be measured spectrophotometrically. Cell suspension, 100 μl, containing 10^4 tumor cells with or without test sample was incubated for 72 hr in 5% CO2 -95% air at 37° C. in 96 well microculture plates (Falcol 3072). The 10 μl of MTT (5 mg/ml) in saline was added to each culture well and incubated for 4 hr at 37° C. The formazan crystals were solubilized by the addition of 100 μl of 10% SDS/0.01N HCl to each well, and incubated for 24 hr at 37° C. The plates were then read at 570 nm on the plate reader. The percentage of cytotoxicity was calculated from the formula: [formula]
(§3) 2 '-Deoxy-2'-methylidene-5-fluorocytidine was dissolved in distilled water, and diluted in RPM1 1640 medium. Tumor cell lines were maintained in RPM1 1640 medium (Nissui Seiyaku Co., Ltd., Tokyo, Japan).
(§4) IC50 values gave the concentrations showing the 50% cytotoxity.

B16; mouse melanoma = test: MTT cytotoxicity, in vitro cell growth, B16; assay type: cell-based; settings: 72 hr, read-out: IC50 (concentration showing 50% cytotoxity)
Protocol: as §1, §2, §3, §4

L1210/c; mouse leukemia = test: MTT cytotoxicity, in vitro cell growth, L1210/c; assay type: cell-based; settings: 72 hr, read-out: IC50 (concentration showing 50% cytotoxity)
Protocol: as §1, §2, §3, §4

[4] = test system: MOLT4; human T cell leukemia; test: MTT cytotoxicity, in vitro cell growth, MOLT4; assay type: cell-based; settings: MOLT-4, 72 hr, read-out: IC50 (concentration showing 50% cytotoxity)
Protocol: as §1, §2, §3, §4

[5] = test system: U937; human histiocytic leukemia; test: MTT cytotoxicity, in vitro cell growth, U937; assay type: cell-based; settings: U-937, 72 hr, read-out: IC50 (concentration showing 50% cytotoxity)
Protocol: as §1, §2, §3, §4

[6] = test system: HL60; human promyelocytic leukemia; test: MTT cytotoxicity, in vitro cell growth, HL60; assay type: cell-based; settings: HL-60, 72 hr, read-out: IC50 (concentration showing 50% cytotoxity)
Protocol: as §1, §2, §3, §4

[7] = test system: CCRF-CEM; human T cell leukemia; test: MTT cytotoxicity, in vitro cell growth, CCRF-CEM; assay type: cell-based; settings: 72 hr, read-out: IC50 (concentration showing 50% cytotoxity)
Protocol: as §1, §2, §3, §4

Row | solubility [1] | solubility in saline [2] | Compound | IC50 [3] [µg/mL] | IC50 (B16; mouse melanoma) [µg/mL] | IC50 (L1210/c; mouse leukemia) [µg/mL] | IC50 [4] [µg/mL] | IC50 [5] [µg/mL] | IC50 [6] [µg/mL] | IC50 [7] [µg/mL]
1 | inferior in solubility | not soluble | C=C1[C@H](n2ccc(N)nc2=O)O[C@H](CO)[C@H]1O [2'-deoxy-2'-methylidenecytidine, reference compound] | – | – | – | – | – | – | –
2 | – | easily soluble | C=C1[C@H](n2cc(F)c(N)nc2=O)O[C@H](CO)[C@H]1O [Example 1, 2'-deoxy-2'-methylidene-5-fluorocytidine] | 1 (≈ 3.89 µM) | 6.9 (≈ 26.8 µM) | 0.33 (≈ 1.28 µM) | 0.036 (≈ 0.14 µM) | 0.44 (≈ 1.71 µM) | 0.04 (≈ 0.156 µM) | 0.14 (≈ 0.544 µM)
